The source of these data is patent US10258602B2 (Ocera Therapeutics, Inc., priority 2007, dated 2019).

SMILES strings stand for the structures. pKi: −log10 of the molar value.

In this assay the target is human growth hormone secretagogue receptor (hGHS-R1a) (Homo sapiens, UniProt Q92847). Kind of assay: Competitive radioligand binding assay (ghrelin receptor), standard method A. To be noted: binding activity at the human ghrelin receptor, standard method A. The text has this: A competitive binding assay at the human growth hormone secretagogue receptor (hGHS-R1a) can be carried out analogously to assays described in the literature. (Bednarek, M. A.; et al. J. Med. Chem. 2000, 43, 4370-4376; Palucki, B. L.; et al. Bioorg. Med. Chem. Lett. […], 11, 1955-1957.) See also U.S. patent application Ser. Nos. 11/149,512 and 11/149,731. Binding activity at the gherlin receptor for representative compounds of the present invention is shown in the Examples below.
Sequence of human growth hormone secretagogue receptor (hGHS-R1a) (Q92847 whole entry): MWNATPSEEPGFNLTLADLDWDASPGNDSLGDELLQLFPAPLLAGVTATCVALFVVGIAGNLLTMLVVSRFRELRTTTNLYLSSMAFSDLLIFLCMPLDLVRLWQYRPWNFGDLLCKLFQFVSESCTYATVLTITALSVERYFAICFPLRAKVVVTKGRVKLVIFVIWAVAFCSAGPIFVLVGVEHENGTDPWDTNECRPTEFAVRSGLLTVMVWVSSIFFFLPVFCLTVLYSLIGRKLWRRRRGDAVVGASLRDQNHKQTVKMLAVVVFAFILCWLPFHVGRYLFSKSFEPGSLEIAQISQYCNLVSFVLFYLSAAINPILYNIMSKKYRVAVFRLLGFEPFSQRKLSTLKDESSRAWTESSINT
As for `CC[C@H](C)[C@@H]1NC[C@@H](C)Oc2cccnc2CCCNC(=O)[C@@H](CC(C)C)NC(=O)[C@@H](C)N(C)C1=O` [Compound 1000], the pKi was at least 6.30.

Compound `C[C@@H]1C(=O)N[C@H](Cc2ccc(F)cc2)C(=O)NCCCc2ccccc2OC(C)(C)CN[C@@H](C2CC2)C(=O)N1C` [Compound 1003] showed a pKi of at least 7.00.

As to `C[C@H]1CNC(=O)[C@@H](Cc2ccc(F)cc2)NC(=O)[C@@H](C)N(C)C(=O)[C@H](C2CC2)NC[C@@H](C)Oc2ccccc2C1` [Compound 1005], the pKi was at least 7.00.

In turn, `CC(C)C[C@H]1NC(=O)[C@@H](C)N(C)C(=O)[C@H](C2CC2)NC[C@@H](C)Oc2c(Cl)cccc2CCCNC1=O` [Compound 1006] showed a pKi of at least 6.30.

Consider `C[C@@H]1CN[C@@H](C2CC2)C(=O)N(C)[C@H](C)C(=O)N[C@H](Cc2ccc(F)cc2)C(=O)NCCCc2cccc(Cl)c2O1` [Compound 1007], for which the pKi was at least 7.00.

With `C[C@@H]1CCc2ccccc2O[C@H](C)CN[C@@H](C2CC2)C(=O)N(C)[C@H](C)C(=O)N[C@H](Cc2ccc(F)cc2)C(=O)N1` [Compound 1010], the pKi was at least 8.00.

With `C[C@@H]1CN[C@@H](C2CC2)C(=O)N(C)[C@H](C)C(=O)N[C@H](C(C)(C)C)C(=O)NCCCc2ccccc2O1` [Compound 1014], the pKi was at least 6.30.

With `CC(C)C[C@H]1NC(=O)[C@@H](C)N(C)C(=O)[C@H](C2CC2)NC[C@@H]2CCc3cccc(c3O2)CCCNC1=O` [Compound 1015], the pKi is at least 6.30.

In the case of `C[C@@H]1C(=O)N[C@H](Cc2ccc(F)cc2)C(=O)NCCCc2cccc3c2O[C@@H](CC3)CN[C@@H](C2CC2)C(=O)N1C` [Compound 1016], the pKi was at least 7.00.

`CC(C)C[C@H]1NC(=O)[C@@H](C)N(C)C(=O)[C@H](C2CC2)NCCOc2cnccc2CCCNC1=O` [Compound 1021] showed a pKi below 6.30.

In turn, `CC[C@H](C)[C@@H]1NCCOc2cnccc2CCCNC(=O)[C@@H](CC(C)C)NC(=O)[C@@H](C)N(C)C1=O` [Compound 1022] had a pKi of at least 6.30.

Take `C[C@@H]1CN[C@@H](C2CC2)C(=O)N(C)[C@H](C)C(=O)N[C@H](Cc2ccc(O)cc2)C(=O)NCCCc2ncccc2O1` [Compound 1023]: the pKi is at least 7.00.

Turning to `C[C@@H]1C(=O)N[C@H](Cc2ccc(O)cc2)C(=O)NCCCc2cccc3c2O[C@@H](CC3)CN[C@@H](C2CC2)C(=O)N1C` [Compound 1024], the pKi was at least 7.00.

`C[C@@H]1C(=O)N[C@H](Cc2ccc(O)cc2)C(=O)NCCCc2cccc3c2OC(CN[C@@H](C2CC2)C(=O)N1C)C3` (stereo partly shown) [Compound 1025] had a pKi of at least 6.30.

`CC[C@H](C)[C@@H]1NC[C@@H](C)Oc2cccnc2CCCNC(=O)[C@@H](Cc2ccc(O)cc2)NC(=O)[C@@H](C)N(C)C1=O` [Compound 1026] had a pKi of at least 7.00.

Take `C[C@@H]1CN[C@@H](C2CC2)C(=O)N(C)[C@H](C)C(=O)N[C@H](Cc2ccccc2)C(=O)NCCCc2ncccc2O1` [Compound 1028]: the pKi is at least 7.00.

The compound `CC[C@H](C)[C@@H]1NC[C@@H](C)Oc2cccnc2CCCNC(=O)[C@@H](Cc2ccc(F)cc2)NC(=O)[C@@H](C)N(C)C1=O` [Compound 1029] gave a pKi of at least 8.00.

In turn, `CC[C@H](C)[C@@H]1NC[C@@H](C)Oc2cccnc2CCCNC(=O)[C@@H](Cc2ccccc2)NC(=O)[C@@H](C)N(C)C1=O` [Compound 1030] had a pKi of at least 7.00.

`C[C@@H]1C(=O)N[C@H](Cc2ccccc2)C(=O)NCCCc2ccncc2OCCN[C@@H](C2CC2)C(=O)N1C` [Compound 1031] had a pKi of at least 7.00.

The compound `CO[C@H](C)[C@@H]1NC[C@@H](C)Oc2cccnc2CCCNC(=O)[C@@H](Cc2ccc(F)cc2)NC(=O)[C@@H](C)N(C)C1=O` [Compound 1032] showed a pKi of at least 6.30.

In turn, `C[C@@H]1CN[C@@H](C2CC2)C(=O)N(C)[C@H](C)C(=O)N[C@H]([C@@H](C)c2ccc(F)cc2)C(=O)NCCCc2ccccc2O1` [Compound 1034] had a pKi of at least 7.00.

Regarding `C[C@@H]1CN[C@@H](C2CC2)C(=O)N(C)[C@H](C)C(=O)N[C@H](C(C)(C)c2ccc(F)cc2)C(=O)NCCCc2ccccc2O1` [Compound 1035], the pKi was at least 7.00.

`C[C@@H]1CN[C@@H](C2CC2)C(=O)N(C)[C@H](C)C(=O)N[C@H](CC(=O)O)C(=O)NCCCc2ccccc2O1` [Compound 1036] had a pKi below 6.30.

Consider `C[C@@H]1CN[C@@H](C2CC2)C(=O)N(C)[C@H](C)C(=O)N[C@H](Cc2ccc(C(F)(F)F)cc2)C(=O)NCCCc2ccccc2O1` [Compound 1038], for which the pKi was at least 7.00.

Consider `C[C@@H]1CN[C@@H](C2CC2)C(=O)N(C)[C@H](C)C(=O)N[C@H](Cc2ccc(Cl)cc2Cl)C(=O)NCCCc2ccccc2O1` [Compound 1039], for which the pKi is at least 7.00.

Consider `C[C@@H]1CN[C@@H](C2CC2)C(=O)N(C)[C@H](C)C(=O)N[C@H](Cc2ccc(F)c(F)c2)C(=O)NCCCc2ccccc2O1` [Compound 1040], for which the pKi was at least 7.00.

In turn, `C[C@@H]1CN[C@@H](C2CC2)C(=O)N(C)[C@H](C)C(=O)N[C@H](Cc2cc(F)c(F)c(F)c2)C(=O)NCCCc2ccccc2O1` [Compound 1041] showed a pKi of at least 7.00.

`C[C@@H]1CN[C@@H](C2CC2)C(=O)N(C)[C@H](C)C(=O)N[C@H](Cc2c(F)c(F)c(F)c(F)c2F)C(=O)NCCCc2ccccc2O1` [Compound 1042]: the pKi is at least 7.00.

`CC1CNC(C2CC2)C(=O)N(C)C(C)C(=O)NC(C(C)(C)C)C(=O)NCCCc2cccc(F)c2O1` (stereo not shown) [Compound 1044]: the pKi was at least 6.30.

In the case of `C[C@@H]1CN[C@@H](C2CC2)C(=O)N(C)[C@H](C)C(=O)N[C@H](CC2CCCCC2)C(=O)NCCCc2ccccc2O1` [Compound 1045], the pKi is at least 7.00.

Regarding `C[C@@H]1CN[C@@H](C2CC2)C(=O)N(C)[C@H](C)C(=O)N[C@H](C2CCCCC2)C(=O)NCCCc2ccccc2O1` [Compound 1046], the pKi is at least 7.00.

For the compound `C[C@@H]1CN[C@@H](C2CC2)C(=O)N(C)[C@H](C)C(=O)N[C@H](C2CC2)C(=O)NCCCc2ccccc2O1` [Compound 1048], the pKi was below 6.30.

Turning to `C[C@@H]1CN[C@@H](C2CC2)C(=O)N(C)[C@H](C)C(=O)N[C@H]([C@H](C)O)C(=O)NCCCc2ccccc2O1` [Compound 1050], the pKi was below 6.30.

On to `C[C@@H]1CN[C@@H](C2CC2)C(=O)N(C)[C@H](C)C(=O)N[C@H](Cc2cc(Br)c(O)c(Br)c2)C(=O)NCCCc2ccccc2O1` [Compound 1053], for which the pKi is at least 7.00.

Regarding `CC(=O)Oc1c(Br)cc(C[C@H]2NC(=O)[C@@H](C)N(C)C(=O)[C@H](C3CC3)NC[C@@H](C)Oc3ccccc3CCCNC2=O)cc1Br` [Compound 1066], the pKi is at least 7.00.

The compound `C[C@@H]1CN[C@@H](C2CC2)C(=O)N(C)[C@H](C)C(=O)N[C@H]([C@@H](C)c2ccc(O)cc2)C(=O)NCCCc2ccccc2O1` [Compound 1068] gave a pKi of at least 7.00.

The compound `C[C@@H]1CN[C@@H](C2CC2)C(=O)N(C)[C@H](C)C(=O)N[C@H](Cc2ccc(F)cc2)C(=O)NCCC(C)(C)c2ccccc2O1` [Compound 1071] had a pKi of at least 6.30.

Compound `C[C@@H]1C(=O)N[C@H](Cc2ccc(O)cc2)C(=O)NCCCc2nccc3c2O[C@H](CC3)CN[C@@H](C2CC2)C(=O)N1C` [Compound 1074] gave a pKi of at least 7.00.

Consider `C[C@@H]1C(=O)N[C@H]([C@@H](C)c2ccc(O)cc2)C(=O)NCCCc2nccc3c2O[C@H](CC3)CN[C@@H](C2CC2)C(=O)N1C` [Compound 1076], for which the pKi was at least 7.00.

For `C[C@@H]1CN[C@@H](C2CC2)C(=O)N(C)[C@H](C)C(=O)N[C@H](Cc2cccc(O)c2)C(=O)NCCCc2ncccc2O1` [Compound 1079], the pKi was at least 7.00.

`C[C@@H]1C(=O)N[C@H]([C@@H](C)c2ccc(O)cc2)C(=O)NCCCc2ncccc2OCCN[C@@H](C2CC2)C(=O)N1C` [Compound 1080] showed a pKi of at least 7.00.

The compound `C[C@@H]1CN[C@@H](C2CC2)C(=O)N(C)[C@H](C)C(=O)N[C@H]([C@H](C)c2ccc(O)cc2)C(=O)NCCCc2ncccc2O1` [Compound 1081] had a pKi below 6.30.

In turn, `C[C@@H]1CN[C@@H](C2CC2)C(=O)N(C)[C@H](C)C(=O)N[C@H]([C@@H](C)c2ccc(O)cc2)C(=O)NCCCc2ncccc2O1` [Compound 1082] had a pKi of at least 6.30.

In turn, `C[C@@H]1C(=O)N[C@H](Cc2ccc(O)cc2)C(=O)N[C@@H](C)CCc2ccccc2OCCN[C@@H](C2CC2)C(=O)N1C` [Compound 1083] showed a negative logarithm of the Ki (pKi) of at least 7.00.

`CC(C)C[C@H]1NC(=O)[C@@H](C)N(C)C(=O)[C@H](C2CC2)NCCOc2ccccc2CC[C@H](C)NC1=O` [Compound 1084] had a pKi of at least 7.00.

In the case of `CC(C)C[C@H]1NC(=O)[C@@H](C)N(C)C(=O)[C@H](C2CC2)NCCOc2ccccc2CC[C@@H](C)NC1=O` [Compound 1086], the pKi was at least 7.00.

In turn, `CC(C)C[C@H]1NC(=O)[C@@H](C)N(C)C(=O)[C@H](C2CC2)NC[C@@H](C)Oc2cccnc2CC[C@H](C)NC1=O` [Compound 1088] had a pKi of at least 6.30.

In the case of `COC(=O)C[C@H]1NC(=O)[C@@H](C)N(C)C(=O)[C@H](C2CC2)NC[C@@H](C)Oc2ccccc2CCCNC1=O` [Compound 1090], the pKi is at least 6.30.

In turn, `CC(C)C[C@H]1NC(=O)[C@@H](C)N(C)C(=O)[C@H](C2CCCCC2)NC[C@@H](C)Oc2ccccc2CCCNC1=O` [Compound 1099] showed a pKi of at least 9.00.

In the case of `C[C@@H]1C(=O)N[C@H](Cc2ccc(F)cc2)C(=O)NCCCc2ccc(F)c(F)c2OCCN[C@@H](C2CC2)C(=O)N1C` [Compound 1100], the pKi was at least 8.00.

On to `C[C@@H]1CN[C@@H](C2CC2)C(=O)N(C)[C@H](C)C(=O)N[C@H](c2ccc(O)cc2)C(=O)NCCCc2ccccc2O1` [Compound 1103], for which the pKi was below 6.30.

As for `C[C@@H]1CN[C@@H](C2CC2)C(=O)N(C)[C@H](C)C(=O)N[C@H](Cc2ccc(O)c(F)c2)C(=O)NCCCc2ccccc2O1` [Compound 1104], the pKi was at least 7.00.

Usually pKi stands for the Ki on a negative log10 scale, so that one unit is a factor of ten. A low value points to a large Ki.
